Laboratory results: US20070128217A1 (priority 2003, published 2007)

Tests used:
[1] = tested on: recombinant human anti-SARS-CoV antibody 03-018; assay type: binding; parameters: Binding of antibody 03-018 to linear peptides of the N protein of SARS-CoV Urbani / Binding of antibody 03-018 to looped/cyclic peptides of the N protein of SARS-CoV Urbani: unit not given here
[2] = tested on: antibodies in sera from SARS patients (sera 1a, 1b, 2, 6, 37, 62, London, SARS-yellow, SARS-green); assay type: binding, human; parameters: Binding of serum 6 to linear peptides of protein X1 of SARS-CoV Urbani / Binding of serum 37 to linear peptides of protein X1 of SARS-CoV Urbani / Binding of serum 6 to looped/cyclic peptide (PEPSCAN-ELISA) / Binding of serum 37 to looped/cyclic peptide (PEPSCAN-ELISA) / Binding of serum 37 to looped/cyclic peptides of protein X1 of SARS-CoV Urbani / Binding of serum 6 to linear peptides of protein X2 / Binding of serum 37 to linear peptides of protein X2 / Binding of serum 37 to looped/cyclic peptides of protein X2 of SARS-CoV Urbani / Binding of serum 6 to linear peptides of protein M of SARS-CoV Urbani / Binding of serum 37 to linear peptides of protein M of SARS-CoV Urbani / Binding of serum 6 to looped/cyclic peptides of protein M of SARS-CoV Urbani / Binding of serum 37 to looped/cyclic peptides of protein M of SARS-CoV Urbani / Binding of serum 6 to linear peptides of protein X3 of SARS-CoV Urbani / Binding of serum 37 to linear peptides of protein X3 of SARS-CoV Urbani / Binding of serum 37 to looped/cyclic peptides of protein X3 of SARS-CoV Urbani / Binding of serum 6 to linear peptides of protein X4 of SARS-CoV Urbani / Binding of serum 37 to linear peptides of protein X4 of SARS-CoV Urbani / Binding of serum 37 to looped/cyclic peptides of protein X4 of SARS-CoV Urbani / Binding of serum 6 to linear peptides of protein X5 of SARS-CoV Urbani / Binding of serum 37 to linear peptides of protein X5 of SARS-CoV Urbani / Binding of serum 37 to looped/cyclic peptides of protein X5 of SARS-CoV Urbani / Binding of serum 6 to linear peptides of protein N of SARS-CoV Urbani / Binding of serum 37 to linear peptides of protein N of SARS-CoV Urbani / Binding of serum 6 to linear peptide (PEPSCAN-ELISA) / Binding of serum 1a to looped/cyclic peptides of protein N of SARS-CoV Urbani / Binding of serum 1b to looped/cyclic peptides of protein N of SARS-CoV Urbani / Binding of serum 2 to looped/cyclic peptides of protein N of SARS-CoV Urbani / Binding of serum 6 to looped/cyclic peptides of protein N of SARS-CoV Urbani / Binding of serum 37 to looped/cyclic peptides of protein N of SARS-CoV Urbani / Binding of serum 62 to looped/cyclic peptides of protein N of SARS-CoV Urbani / Binding of serum London to looped/cyclic peptides of protein N of SARS-CoV Urbani / Binding of serum SARS-green to looped/cyclic peptides of protein N of SARS-CoV Urbani: unit not given here
[3] = tested on: control sera (pooled serum of ten healthy LUMC hospital workers; commercial negative donor pooled serum from the Dutch bloodbank); assay type: binding, human; parameters: Binding of Control serum LUMC to linear peptides / Binding of Control serum Blood-bank to linear peptides / Binding of Control serum LUMC to looped peptides / Binding of Control Serum Blood-Bank to Looped peptides / Binding of Control serum LUMC to linear peptides of the protein M of SARS-CoV Urbani / Binding of Control serum Blood-bank to linear peptides of the protein M of SARS-CoV Urbani / Binding of Control serum LUMC to looped peptides of the protein M of SARS-CoV Urbani / Binding of Control Serum Blood-Bank to Looped peptides of the protein M of SARS-CoV Urbani: unit not given here
[4] = tested on: rabbit serum obtained by immunizing a rabbit with the SARS-CoV strain Frankfurt 1; assay type: binding; parameters: Binding of a rabbit serum to linear peptides / Binding of a rabbit serum to looped peptides / Rabbit serum linear peptides / Rabbit serum looped peptides / Binding of a rabbit serum to linear peptides of protein N of SARS-CoV Urbani (Rabbit serum linear peptides) / Binding of a rabbit serum to looped/cyclic peptides of protein N of SARS-CoV Urbani (Rabbit serum looped peptides): unit not given here

Sequence | Binding of antibody 03-018 to linear peptides of the N protein of SARS-CoV Urbani [1] | Binding of antibody 03-018 to looped/cyclic peptides of the N protein of SARS-CoV Urbani [1] | Binding of serum 1a to linear peptides of protein N of SARS-CoV Urbani [2] | Binding of serum 1a to looped/cyclic peptides of protein N of SARS-CoV Urbani [2] | Binding of serum 1b to linear peptides of protein N of SARS-CoV Urbani [2] | Binding of serum 1b to looped/cyclic peptides of protein N of SARS-CoV Urbani [2] | Binding of serum 2 to linear peptides of protein N of SARS-CoV Urbani [2] | Binding of serum 2 to looped/cyclic peptides of protein N of SARS-CoV Urbani [2] | Binding of serum 6 to linear peptides of protein N of SARS-CoV Urbani [2] | Binding of serum 6 to looped/cyclic peptides of protein N of SARS-CoV Urbani [2] | Binding of serum 37 to linear peptides of protein N of SARS-CoV Urbani [2] | Binding of serum 37 to looped/cyclic peptides of protein N of SARS-CoV Urbani [2] | Binding of serum 62 to linear peptides of protein N of SARS-CoV Urbani [2] | Binding of serum 62 to looped/cyclic peptides of protein N of SARS-CoV Urbani [2] | Binding of serum London to linear peptides of protein N of SARS-CoV Urbani [2] | Binding of serum London to looped/cyclic peptides of protein N of SARS-CoV Urbani [2] | Binding of serum SARS-green to linear peptides of protein N of SARS-CoV Urbani [2] | Binding of serum SARS-green to looped/cyclic peptides of protein N of SARS-CoV Urbani [2] | Binding of serum SARS-yellow to linear peptides of protein N of SARS-CoV Urbani [2] | Binding of serum SARS-yellow to looped/cyclic peptides of protein N of SARS-CoV Urbani [2] | further results
DKKKKTDEAQPLPQR | 0.1 | 0.2 | 0.2 | 0.2 | 0.1 | 0.1 | 0.2 | 0.2 | 0.2 | 0.1 | 0.6 | 0.4 | 0.6 | 0.3 | 0.5 | 0.3 | 0.5 | 0.3 | 0.6 | 0.3 | Control Serum Blood-Bank Looped peptides [3]: 0.5; Control serum Blood-bank linear peptides [3]: 0.8; Control serum LUMC linear peptides [3]: 0.6; Control serum LUMC looped peptides [3]: 0.4; Binding of a rabbit serum to linear peptides of protein N of SARS-CoV Urbani (Rabbit serum linear peptides) [4]: 0.1; Binding of a rabbit serum to looped/cyclic peptides of protein N of SARS-CoV Urbani (Rabbit serum looped peptides) [4]: 0.3
LNTPKDHIGTRNPNN | 0.1 | 0.2 | 0.2 | 0.4 | 0.1 | 0.3 | 0.3 | 0.4 | 0.2 | 0.3 | 0.7 | 0.6 | 0.6 | 0.5 | 0.5 | 0.5 | 0.2 | 0.4 | 0.6 | 0.4 | Binding of Control Serum Blood-Bank to Looped peptides [3]: 0.5; Binding of Control serum Blood-bank to linear peptides [3]: 0.8; Binding of Control serum LUMC to linear peptides [3]: 0.6; Binding of Control serum LUMC to looped peptides [3]: 0.6; Binding of a rabbit serum to linear peptides of protein N of SARS-CoV Urbani (Rabbit serum linear peptides) [4]: 0.2; Binding of a rabbit serum to looped/cyclic peptides of protein N of SARS-CoV Urbani (Rabbit serum looped peptides) [4]: 0.0
QIGYYRRATRRVRGG | 0.1 | 0.2 | 0.3 | 0.3 | 0.1 | 0.2 | 0.2 | 0.4 | 0.2 | 0.3 | 0.6 | 0.7 | 0.6 | 0.6 | 0.5 | 0.4 | 0.2 | 0.4 | 0.6 | 0.6 | Binding of Control Serum Blood-Bank to Looped peptides [3]: 0.8; Binding of Control serum Blood-bank to linear peptides [3]: 0.8; Binding of Control serum LUMC to linear peptides [3]: 0.6; Binding of Control serum LUMC to looped peptides [3]: 0.7; Recognition of the peptide by the rabbit serum [4]: recognized
ALALLLLDRLNQLES | 0.1 | 0.3 |  | 0.4 |  | 0.2 |  | 0.4 |  | 0.2 |  | 0.8 |  | 0.7 |  | 0.5 |  | 0.4 |  | 0.5 | Binding of serum 1a to linear peptide (PEPSCAN-ELISA) [2]: 0.3; Binding of serum 1b to linear peptide (PEPSCAN-ELISA) [2]: 0.2; Binding of serum 2 to linear peptide (PEPSCAN-ELISA) [2]: 0.1; Binding of serum 6 to linear peptide (PEPSCAN-ELISA) [2]: 0.2; Binding of serum 37 to linear peptide (PEPSCAN-ELISA) [2]: 0.5; Binding of serum 62 to linear peptide (PEPSCAN-ELISA) [2]: 0.6; Binding of serum London to linear peptide (PEPSCAN-ELISA) [2]: 0.5; Binding of serum SARS-green to linear peptide (PEPSCAN-ELISA) [2]: 0.4; Binding of serum SARS-yellow to linear peptide (PEPSCAN-ELISA) [2]: 0.5; Binding of Control Serum Blood-Bank to Looped peptides [3]: 0.8; Binding of Control serum Blood-bank to linear peptides [3]: 0.7; Binding of Control serum LUMC to linear peptides [3]: 0.7; Binding of Control serum LUMC to looped peptides [3]: 0.8; Binding of a rabbit serum to linear peptides of protein N of SARS-CoV Urbani (Rabbit serum linear peptides) [4]: 0.2; Binding of a rabbit serum to looped/cyclic peptides of protein N of SARS-CoV Urbani (Rabbit serum looped peptides) [4]: 0.6
